Test results published in patent US8017782B2, “4-phenyl-5-oxo-1,4,5,6,7,8-hexahydroquinoline derivatives as medicaments for the treatment of infertility” (N.V. Organon, priority 2005, dated 2011).
pEC50: −log10 of the molar value.

biological target: T1, human FSH receptor (Homo sapiens, UniProt P23945); experiment: Agonistic activity at the human FSH receptor expressed in CHO cells (CRE-luciferase reporter); assay type: cell-based; details: CHO cells stably transfected with human FSH receptor and CRE/luciferase reporter; tested 0.1 nM to 10 μM; read-out: EC50 (concentration of test compound causing half-maximal (50%) luciferase stimulation)
T1 construct: expressed in transfected cells; host or cells: Chinese Hamster Ovary (CHO) cells
T1 sequence (P23945 18-695): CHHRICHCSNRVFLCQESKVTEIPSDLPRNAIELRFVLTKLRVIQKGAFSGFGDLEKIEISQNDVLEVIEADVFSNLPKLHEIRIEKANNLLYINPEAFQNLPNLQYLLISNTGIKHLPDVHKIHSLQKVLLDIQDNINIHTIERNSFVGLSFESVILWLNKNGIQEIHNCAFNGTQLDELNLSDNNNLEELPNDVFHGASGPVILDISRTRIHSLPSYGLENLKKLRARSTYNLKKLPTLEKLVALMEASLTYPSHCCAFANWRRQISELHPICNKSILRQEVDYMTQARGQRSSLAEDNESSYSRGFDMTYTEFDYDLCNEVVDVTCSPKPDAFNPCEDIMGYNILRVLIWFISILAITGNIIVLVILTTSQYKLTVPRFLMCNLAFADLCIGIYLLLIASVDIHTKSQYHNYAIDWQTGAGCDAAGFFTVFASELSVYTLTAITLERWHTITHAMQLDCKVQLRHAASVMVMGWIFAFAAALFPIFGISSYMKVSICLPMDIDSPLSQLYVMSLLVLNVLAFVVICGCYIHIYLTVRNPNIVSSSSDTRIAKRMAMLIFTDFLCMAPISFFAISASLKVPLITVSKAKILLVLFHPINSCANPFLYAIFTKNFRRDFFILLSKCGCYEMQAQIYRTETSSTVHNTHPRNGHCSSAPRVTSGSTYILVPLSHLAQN
Experimental: Agonistic Activity of Compounds at the Human FSH Receptor Expressed in CHO Cells
Agonist activity of the compounds at the human FSH receptor was tested in Chinese Hamster Ovary (CHO) cells stably transfected with the human FSH receptor and cotransfected with a cAMP responsive element (CRE)/promotor directing the expression of a firefly luciferase reporter gene. Binding of the compound to the Gs-coupled FSH receptor will result in an increase of cAMP, which in turn will induce an increased transactivation of the luciferase reporter construct. The luciferase activity was quantified using a luminescence counter. The compounds were tested in the concentration range of 0.1 nM to 10 μM. This assay was used to determine the EC50 (concentration of test compound causing half-maximal (50%) luciferase stimulation) and efficacy of the compounds compared to recombinant human FSH. For this, the software program XLfit (Excel version 2.0, built 30, ID Business Solutions Limited) was used.

pEC50, > 8.00:
CCCC1CC(=O)C2=C(C1)NC(C)=C(C#N)C2c1cc(Br)c(OCC=CC(=O)NCc2ccccn2)c(OCC)c1 (centres unmarked) [Example 12, 4-[2-Bromo-4-(3-cyano-2-methyl-5-oxo-7-propyl-1,4,5,6,7,8-hexahydro-quinolin-4-yl)-6-ethoxy-phenoxy]-but-2-enoic acid (pyridin-2-ylmethyl)-amide]
CCCC1CC(=O)C2=C(C1)NC(C)=C(C#N)C2c1cc(Br)c(OCC=CCNC(=O)C(C)C)c(OCC)c1 (centres unmarked) [Example 2, N-{4-[2-Bromo-4-(3-cyano-2-methyl-5-oxo-7-propyl-1,4,5,6,7,8-hexahydro-quinolin-4-yl)-6-ethoxy-phenoxy]-but-2-enyl}-isobutyramide]
CCCC1CC(=O)C2=C(C1)NC(C)=C(C#N)C2c1cc(Br)c(OCCOCCO)c(OC(C)C)c1 (centres unmarked) [Example 24, 4-{3-Bromo-4-[2-(2-hydroxy-ethoxy)-ethoxy]-5-isopropoxy-phenyl}-2-methyl-5-oxo-7-propyl-1,4,5,6,7,8-hexahydro-quinoline-3-carbonitrile]
CCCC1CC(=O)C2=C(C1)NC(C)=C(C#N)C2c1cc(Br)c(OCC=CCNC(=O)COC)c(OCC)c1 (centres unmarked) [Example 5, N-{4-[2-Bromo-4-(3-cyano-2-methyl-5-oxo-7-propyl-1,4,5,6,7,8-hexahydro-quinolin-4-yl)-6-ethoxy-phenoxy]-but-2-enyl}-2-methoxy-acetamide]
CCCC1CC(=O)C2=C(C1)NC(C)=C(C#N)C2c1cc(Br)c(OCCOC)c(S(=O)(=O)N(C)C)c1 (centres unmarked) [Example 29, 3-Bromo-5-(3-cyano-2-methyl-5-oxo-7-propyl-1,4,5,6,7,8-hexahydro-quinolin-4-yl)-2-(2-methoxy-ethoxy)-N,N-dimethyl-benzenesulfonamide]
CCCC1CC(=O)C2=C(C1)NC(C)=C(C#N)C2c1cc(Br)c(OCCOCCNC(=O)C2CC2)c(OCC)c1 (centres unmarked) [Example 22, Cyclopropanecarboxylic acid (2-{2-[2-bromo-4-(3-cyano-2-methyl-5-oxo-7-propyl-1,4,5,6,7,8-hexahydro-quinolin-4-yl)-6-ethoxy-phenoxy]-ethoxy}-ethyl)-amide]
CCCC1CC(=O)C2=C(C1)NC(C)=C(C#N)C2c1cc(Br)c(NCCOC)c(S(=O)(=O)N2CCOCC2)c1 (centres unmarked) [Example 31, 4-[3-Bromo-4-(2-methoxy-ethylamino)-5-(morpholine-4-sulfonyl)-phenyl]-2-methyl-5-oxo-7-propyl-1,4,5,6,7,8-hexahydro-quinoline-3-carbonitrile]
CCCC1CC(=O)C2=C(C1)NC(C)=C(C#N)C2c1cc(Br)c(OCC=CCNC(=O)OCC)c(OCC)c1 (centres unmarked) [Example 6, {4-[2-Bromo-4-(3-cyano-2-methyl-5-oxo-7-propyl-1,4,5,6,7,8-hexahydro-quinolin-4-yl)-6-ethoxy-phenoxy]-but-2-enyl}-carbamic acid ethyl ester]
CCCC1CC(=O)C2=C(C1)NC(C)=C(C#N)C2c1cc(Br)c(OCCO)c(S(=O)(=O)N(C)C)c1 (centres unmarked) [Example 26, 3-Bromo-5-(3-cyano-2-methyl-5-oxo-7-propyl-1,4,5,6,7,8-hexahydro-quinolin-4-yl)-2-(2-hydroxy-ethoxy)-N,N-dimethyl-benzenesulfonamide]
CCCC1CC(=O)C2=C(C1)NC(C)=C(C#N)C2c1cc(Br)c(OCCCCCNC(=O)COC)c(OCC)c1 (centres unmarked) [Example 17, N-{5-[2-Bromo-4-(3-cyano-2-methyl-5-oxo-7-propyl-1,4,5,6,7,8-hexahydro-quinolin-4-yl)-6-ethoxy-phenoxy]-pentyl}-2-methoxy-acetamide]
CCCC1CC(=O)C2=C(C1)NC(C)=C(C#N)C2c1cc(Br)c(OCCOCCOC)c(S(=O)(=O)N(C)C)c1 (centres unmarked) [Example 30, 3-Bromo-5-(3-cyano-2-methyl-5-oxo-7-propyl-1,4,5,6,7,8-hexahydro-quinolin-4-yl)-2-[2-(2-methoxy-ethoxy)-ethoxy]-N,N-dimethyl-benzenesulfonamide]
CCCC1CC(=O)C2=C(C1)NC(C)=C(C#N)C2c1cc(Br)c(OCC=CCO)c(OCC)c1 (centres unmarked) [Example 28, 4-[3-Bromo-5-ethoxy-4-(4-hydroxy-but-2-enyloxy)-phenyl]-2-methyl-5-oxo-7-propyl-1,4,5,6,7,8-hexahydro-quinoline-3-carbonitrile]
CCCC1CC(=O)C2=C(C1)NC(C)=C(C#N)C2c1cc(Br)c(OCCCCCCNS(=O)(=O)C(C)C)c(OCC)c1 (centres unmarked) [Example 20, Propane-2-sulfonic acid {6-[2-bromo-4-(3-cyano-2-methyl-5-oxo-7-propyl-1,4,5,6,7,8-hexahydro-quinolin-4-yl)-6-ethoxy-phenoxy]-hexyl}-amide]
CCCC1CC(=O)C2=C(C1)NC(C)=C(C#N)C2c1cc(Br)c(OCCOCCO)c(S(=O)(=O)N(C)C)c1 (centres unmarked) [Example 23, 3-Bromo-5-(3-cyano-2-methyl-5-oxo-7-propyl-1,4,5,6,7,8-hexahydro-quinolin-4-yl)-2-[2-(2-hydroxy-ethoxy)-ethoxy]-N,N-dimethyl-benzenesulfonamide]
CCCC1CC(=O)C2=C(C1)NC(C)=C(C#N)C2c1cc(Br)c(OCCCCNC(=O)C(C)C)c(OCC)c1 (centres unmarked) [Example 13, N-{4-[2-Bromo-4-(3-cyano-2-methyl-5-oxo-7-propyl-1,4,5,6,7,8-hexahydro-quinolin-4-yl)-6-ethoxy-phenoxy]-butyl}-isobutyramide]
CCCC1CC(=O)C2=C(C1)NC(C)=C(C#N)C2c1cc(Br)c(OCC=CCNC(=O)C2CC2)c(OCC)c1 (centres unmarked) [Example 3, Cyclopropanecarboxylic acid {4-[2-bromo-4-(3-cyano-2-methyl-5-oxo-7-propyl-1,4,5,6,7,8-hexahydro-quinolin-4-yl)-6-ethoxy-phenoxy]-but-2-enyl}-amide]
CCCC1CC(=O)C2=C(C1)NC(C)=C(C#N)C2c1cc(Br)c(NCCOC)c(S(=O)(=O)N2CCCC2)c1 (centres unmarked) [Example 32, 4-[3-Bromo-4-(2-methoxy-ethylamino)-5-(pyrrolidine-1-sulfonyl)-phenyl]-2-methyl-5-oxo-7-propyl-1,4,5,6,7,8-hexahydro-quinoline-3-carbonitrile]
